Experimental data from ChEMBL document CHEMBL1151049, “Bis-quinolinium cyclophanes: A novel class of potent blockers of the apamin-sensitive Ca2+-activated K+ channel” (Bioorg Med Chem Lett, 1997).

How the values were obtained:
Rattus norvegicus = species: Rattus norvegicus; experiment: Equieffective molar ratio (EMR) is ratio of concentrations of compound and dequalinium causing 50% inhibition of the After hyperpolarisation (AHP) in rat sympathetic neurons; format: functional, Sympathetic neuron
[1] = molecular target: Small conductance calcium-activated potassium channel protein 2 (Rattus norvegicus, UniProt P70604); experiment: Inhibitory concentration of compound required for SKCa blocking action was assessed from its ability to inhibit After hyperpolarisation (AHP) in cultured rat sympathetic neurons; format: functional, cell-based, Sympathetic neuron
Sequence of Small conductance calcium-activated potassium channel protein 2 (P70604 whole entry): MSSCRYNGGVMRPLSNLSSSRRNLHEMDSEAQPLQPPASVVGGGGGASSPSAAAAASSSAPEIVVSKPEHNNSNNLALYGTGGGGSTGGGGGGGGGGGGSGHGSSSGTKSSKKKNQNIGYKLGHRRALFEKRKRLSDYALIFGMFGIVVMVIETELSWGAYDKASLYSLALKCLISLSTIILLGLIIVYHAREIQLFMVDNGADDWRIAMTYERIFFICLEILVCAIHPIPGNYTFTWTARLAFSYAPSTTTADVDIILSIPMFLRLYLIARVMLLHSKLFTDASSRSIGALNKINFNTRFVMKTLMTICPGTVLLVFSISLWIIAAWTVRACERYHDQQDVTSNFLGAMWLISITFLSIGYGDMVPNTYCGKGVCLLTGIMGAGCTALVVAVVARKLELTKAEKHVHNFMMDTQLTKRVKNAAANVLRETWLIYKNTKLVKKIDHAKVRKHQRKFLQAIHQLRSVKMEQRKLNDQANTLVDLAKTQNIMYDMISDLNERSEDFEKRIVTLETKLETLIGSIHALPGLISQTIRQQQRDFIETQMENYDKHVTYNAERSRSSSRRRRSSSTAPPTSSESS

Row | Structure (SMILES) | EMR (Rattus norvegicus) | IC50 [1]
1 | C1=C\c2ccc(cc2)C[n+]2ccc(c3ccccc32)NCCCCCCCCCCNc2cc[n+](c3ccccc23)Cc2ccc/1cc2 | 0.28 | 150 nM
2 | c1ccc2c(c1)c1cc[n+]2Cc2ccc(cc2)CCc2ccc(cc2)C[n+]2ccc(c3ccccc32)NCCCCCCCCCCN1 | 0.58 | 180 nM
3 | c1cc2cc(c1)-c1cccc(c1)C[n+]1ccc(c3ccccc31)NCCCCCCCCCCNc1cc[n+](c3ccccc13)C2 | 0.28 | 110 nM
4 | Nc1cc[n+](Cc2ccc(-c3ccc(C[n+]4ccc(N)c5ccccc54)cc3)cc2)c2ccccc12 | 0.4 | 380 nM
5 | Nc1cc[n+](Cc2ccc(CCc3ccc(C[n+]4ccc(N)c5ccccc54)cc3)cc2)c2ccccc12 | 0.71 | 410 nM
6 | c1ccc2c(c1)c1cc[n+]2Cc2ccc3c(c2)Cc2cc(ccc2-3)C[n+]2ccc(c3ccccc32)NCCCCCCCCCCN1 | 0.12 | 90 nM
7 | c1ccc(C[n+]2ccc(NCCCCCCCCCCNc3cc[n+](Cc4ccccc4)c4ccccc34)c3ccccc32)cc1 | 1 | 700 nM
8 | c1ccc2c(c1)c1cc[n+]2Cc2ccc(cc2)-c2ccc(cc2)C[n+]2ccc(c3ccccc32)NCCCCCCCCCCN1 | 0.28 | 170 nM
9 | Nc1cc[n+](Cc2ccc(Cc3ccc(C[n+]4ccc(N)c5ccccc54)cc3)cc2)c2ccccc12 | 0.39 | 450 nM
10 | Nc1cc[n+](Cc2cccc(-c3cccc(C[n+]4ccc(N)c5ccccc54)c3)c2)c2ccccc12 | 0.55 | 290 nM
11 | Nc1cc[n+](Cc2ccc3c(c2)Cc2cc(C[n+]4ccc(N)c5ccccc54)ccc2-3)c2ccccc12 | 0.33 | 310 nM
12 | Nc1cc[n+](Cc2ccc(/C=C\c3ccc(C[n+]4ccc(N)c5ccccc54)cc3)cc2)c2ccccc12 | 0.24 | 190 nM
13 | c1ccc2c(c1)c1cc[n+]2Cc2ccc(cc2)Cc2ccc(cc2)C[n+]2ccc(c3ccccc32)NCCCCCCCCCCN1 [UCL-1530] | 0.16 | 80 nM
